Results from US8178517B2, “6-methylvitamin D3 analogs and their uses” (Wisconsin Alumni Research Foundation, priority 2009, dated 2012).

Tests used:
HL-60 cells = assay: HL-60 differentiation (nitro blue tetrazolium reduction); format: cell-based, human; conditions: for EC50: Homo sapiens, HL-60 cells, differentiation into monocytes, FIG. 2, read-out: EC50, HL-60 cell differentiation
Experimental: Serial dilutions were prepared so that a range of drug concentrations could be tested without changing the final concentration of ethanol (≦0.2%) present in the cell cultures.
Human promyelocytic leukemia (HL60) cells were grown in RPMI-1640 medium containing 10% fetal bovine serum. The cells were incubated at 37° C. in the presence of 5% CO2.
HL60 cells were plated at 1.2×10^5 cells/ml. Eighteen hours after plating, cells in duplicate were treated with drug. Four days later, the cells were harvested and a nitro blue tetrazolium reduction assay was performed (Collins et al., 1979; J. Exp. Med. 149:969-974). The percentage of differentiated cells was determined by counting a total of 200 cells and recording the number that contained intracellular black-blue formazan deposits. Verification of differentiation to monocytic cells was determined by measuring phagocytic activity (data not shown).

[1] = system: 24-hydroxylase (24Ohase) gene promoter; assay: In vitro transcription assay (24-hydroxylase promoter luciferase reporter in ROS 17/2.8 bone cells); format: cell-based; conditions: for EC50: ROS 17/2.8 bone cells, luciferase reporter, FIG. 3, read-out: EC50, transcriptional activity in bone cells (24-hydroxylase gene)
Experimental: In Vitro Transcription Assay
Transcription activity was measured in ROS 17/2.8 (bone) cells that were stably transfected with a 24-hydroxylase (24Ohase) gene promoter upstream of a luciferase reporter gene (Arbour et al., 1998). Cells were given a range of doses. Sixteen hours after dosing the cells were harvested and luciferase activities were measured using a luminometer.
RLU=relative luciferase units.

[2] = system: vitamin D-deficient rats on a low calcium diet; assay: Bone calcium mobilization (serum calcium) in vitamin D-deficient rats; format: in vivo, rat; conditions: for serum calcium (bone calcium mobilization): 7020 pmol/day ip for 4 consecutive days, rats on 0.02% Ca diet
Experimental: (§1) Intestinal Calcium Transport and Bone Calcium Mobilization
(§2) Male, weanling Sprague-Dawley rats were placed on Diet 11 (0.47% Ca) diet+AEK oil for one week followed by Diet 11 (0.02% Ca)+AEK oil for 3 weeks. The rats were then switched to a diet containing 0.47% Ca for one week followed by two weeks on a diet containing 0.02% Ca. Dose administration began during the last week on 0.02% calcium diet. Four consecutive ip doses were given approximately 24 hours apart. Twenty-four hours after the last dose, blood was collected from the severed neck and the concentration of serum calcium determined as a measure of bone calcium mobilization. The first 10 cm of the intestine was also collected for intestinal calcium transport analysis using the everted gut sac method.

[3] = system: vitamin D-deficient rats on a low calcium diet; assay: Intestinal calcium transport, everted gut sac method; format: in vivo, rat; conditions: for intestinal calcium transport activity (everted gut sac): 7020 pmol/day for 4 consecutive days
Experimental: as §1, §2

[4] = Isomerization to previtamin form / storage stability; format: physicochemical; conditions: can be stored by a prolonged time in a freezer
[5] = target: T1, full-length recombinant rat vitamin D receptor (Rattus norvegicus, UniProt P13053); assay: biochemical
T1 sequence (P13053 1-423): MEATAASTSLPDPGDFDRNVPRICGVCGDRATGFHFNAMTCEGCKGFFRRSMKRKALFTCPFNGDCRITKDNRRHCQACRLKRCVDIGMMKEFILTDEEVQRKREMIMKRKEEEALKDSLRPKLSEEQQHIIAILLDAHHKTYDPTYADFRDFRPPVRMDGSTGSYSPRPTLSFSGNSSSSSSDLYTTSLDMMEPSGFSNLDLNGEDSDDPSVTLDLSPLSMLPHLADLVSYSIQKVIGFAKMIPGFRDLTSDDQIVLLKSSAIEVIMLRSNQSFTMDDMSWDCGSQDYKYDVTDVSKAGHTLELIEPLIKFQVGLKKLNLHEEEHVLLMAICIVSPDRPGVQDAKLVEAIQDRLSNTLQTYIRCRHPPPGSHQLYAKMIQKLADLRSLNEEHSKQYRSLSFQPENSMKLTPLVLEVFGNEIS
Excerpt: Vitamin D Receptor Binding
Full-length recombinant rat receptor was expressed in E. coli BL21 (DE3) Codon Plus RIL cells and purified to homogeneity using two different column chromatography systems. The first system was a nickel affinity resin that utilizes the C-terminal histidine tag on this protein. The protein that was eluted from this resin was further purified using ion exchange chromatography (S-Sepharose Fast Flow). Aliquots of the purified protein were quick frozen in liquid nitrogen and stored at −80° C. until use. For use in binding assays, the protein was diluted in TEDK50 (50 mM Tris, 1.5 mM EDTA, pH7.4, 5 mM DTT, 150 mM KCl) with 0.1% Chaps detergent.
Radiolabeled and unlabeled ligands were added to 100 mcl of the diluted protein at a final ethanol concentration of ≦10%, mixed and incubated overnight on ice to reach binding equilibrium. The following day, 100 mcl of hydroxylapatite slurry (50%) was added to each tube and mixed at 10-minute intervals for 30 minutes. The hydroxylapaptite was collected by centrifugation and then washed three times with Tris-EDTA buffer (50 mM Tris, 1.5 mM EDTA, pH 7.4) containing 0.5% Titron X-100. […] Total binding was determined from the tubes containing only radiolabeled ligand.

[6] = relative to 1α,25-dihydroxyvitamin D3
[7] = relative to 1,25(OH)2D3, in vivo, rats

Row | Ki [5] [nM] | SMILES | EC50 (HL-60 cells) [nM] | EC50 [1] [nM] | serum calcium (bone calcium mobilization) ([2]; FIG. 4) [mg/dL] | effect on serum calcium levels across dosages ([2]; all dosages tested, FIG. 4) | intestinal calcium transport activity (everted gut sac) ([3]; rats, FIG. 5) | times less activity than 1α,25-dihydroxyvitamin D3 in HL-60 cell differentiation (HL-60 cells; [6]) [times] | times less transcriptional activity in bone cells than 1α,25-dihydroxyvitamin D3 [1, 6] [times] | times less potent than 1,25(OH)2D3 in mobilizing calcium from bone [2, 7] | dose dependence of intestinal calcium transport ([3]; across doses, FIG. 5) | times less potent than 1,25(OH)2D3 in stimulating intestinal calcium transport [3, 7] | stability (isomerization to previtamin D form) [4]
1 | – | C=C1C(=CC=C2CCCC3(C)C2CCC3C(C)CCCC(C)(C)O)CC(O)CC1O (stereo not drawn) [1,25(OH)2D3, 1α,25-dihydroxyvitamin D3, reference compound] | 2 | 0.2 | 7.6 | increased serum calcium levels at all dosages | 8.3 | – | – | – | – | – | –
2 | 0.02 | C=C1/C(=C(C)\C=C2/CCC[C@@]3(C)C2CCC3[C@H](C)CCCC(C)(C)O)C[C@@H](O)C[C@@H]1O (stereo partly drawn) [Me-Cvit, 1α,25-dihydroxy-6-methylvitamin D3] | 80 | 4 | 4.3 | – | 4.8 | ~20 | ~10 | about 400 times | promotes intestinal calcium transport in a dose dependent manner | greater than 1,000 times | very easily isomerizes to its previtamin D form 5
